PubChem BioAssay (NCI)
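1) Cells in 96-well plates. 2) Compound, 48 h, 5 concentrations. 3) Linear interpolation between surrounding doses. 4) Unreached endpoint = highest concentration. The concentration for full growth arrest is given as TGI.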

What was measured:
Test in all cases: NCI-60 cell line screen, 48 h
786-0 renal = tested on: 786-0 renal
A498 renal = tested on: A498 renal
A549 NSCLC = tested on: A549 NSCLC
ACHN renal = tested on: ACHN renal
BT-549 breast = tested on: BT-549 breast
CAKI-1 renal = tested on: CAKI-1 renal
CCRF-CEM leukemia = tested on: CCRF-CEM leukemia
COLO 205 colon = tested on: COLO 205 colon
DLD-1 colon = tested on: DLD-1 colon
DMS 114 small cell lung = tested on: DMS 114 small cell lung
DMS 273 small cell lung = tested on: DMS 273 small cell lung
DU-145 prostate = tested on: DU-145 prostate
HCC-2998 colon = tested on: HCC-2998 colon
HCT-116 colon = tested on: HCT-116 colon
HCT-15 colon = tested on: HCT-15 colon
HL-60(TB) leukemia = tested on: HL-60(TB) leukemia
HOP-18 NSCLC = tested on: HOP-18 NSCLC
HOP-62 NSCLC = tested on: HOP-62 NSCLC
HS 578T breast = tested on: HS 578T breast
HT29 colon = tested on: HT29 colon
IGROV1 ovarian = tested on: IGROV1 ovarian
K-562 leukemia = tested on: K-562 leukemia
KM12 colon = tested on: KM12 colon
KM20L2 colon = tested on: KM20L2 colon
LOX IMVI melanoma = tested on: LOX IMVI melanoma
LXFL 529 NSCLC = tested on: LXFL 529 NSCLC
M14 melanoma = tested on: M14 melanoma
M19-MEL melanoma = tested on: M19-MEL melanoma
MALME-3M melanoma = tested on: MALME-3M melanoma
MCF7 breast = tested on: MCF7 breast
MDA-MB-231 breast = tested on: MDA-MB-231 breast
MDA-MB-435 = tested on: MDA-MB-435
MOLT-4 leukemia = tested on: MOLT-4 leukemia
NCI-H226 lung = tested on: NCI-H226 lung
NCI-H23 lung = tested on: NCI-H23 lung
NCI-H460 lung = tested on: NCI-H460 lung
NCI-H522 lung = tested on: NCI-H522 lung
OVCAR-3 ovarian = tested on: OVCAR-3 ovarian
OVCAR-4 ovarian = tested on: OVCAR-4 ovarian
OVCAR-8 ovarian = tested on: OVCAR-8 ovarian
PC-3 prostate = tested on: PC-3 prostate
RPMI-8226 leukemia = tested on: RPMI-8226 leukemia
SF-268 CNS = tested on: SF-268 CNS
SF-295 CNS = tested on: SF-295 CNS
SF-539 CNS = tested on: SF-539 CNS
SK-MEL-28 melanoma = tested on: SK-MEL-28 melanoma
SK-MEL-5 melanoma = tested on: SK-MEL-5 melanoma
SK-OV-3 ovarian = tested on: SK-OV-3 ovarian
SN12C renal = tested on: SN12C renal
SNB-19 CNS = tested on: SNB-19 CNS
SNB-75 CNS = tested on: SNB-75 CNS
SNB-78 CNS = tested on: SNB-78 CNS
SR leukemia = tested on: SR leukemia
SW-620 colon = tested on: SW-620 colon
T-47D breast = tested on: T-47D breast
TK-10 renal = tested on: TK-10 renal
U251 CNS = tested on: U251 CNS
UACC-257 melanoma = tested on: UACC-257 melanoma
UACC-62 melanoma = tested on: UACC-62 melanoma
UO-31 renal = tested on: UO-31 renal
XF 498 CNS = tested on: XF 498 CNS
EKVX NSCLC = tested on: EKVX NSCLC

`Cc1ccc(NC(=O)NC(=O)c2ccc([N+](=O)[O-])cc2[N+](=O)[O-])cc1Oc1ncc(Cl)cn1` was tested, and the TGI (786-0 renal) was 13.8 µM, the TGI (A498 renal) was 22.2 µM and the TGI (A549 NSCLC) was > 40.2 µM. The TGI (ACHN renal) was > 100 µM, the TGI (BT-549 breast) was 32.7 µM and the TGI (CAKI-1 renal) was 62.9 µM. The TGI (CCRF-CEM leukemia) was > 62.3 µM, the TGI (COLO 205 colon) was 5.9 µM and the TGI (DLD-1 colon) was 12.5 µM. The TGI (DMS 114 small cell lung) was 10.1 µM, the TGI (DMS 273 small cell lung) was 1.08 µM and the TGI (DU-145 prostate) was > 100 µM. It also gave a TGI (HCC-2998 colon) of 0.619 µM, a TGI (HCT-116 colon) of 4.78 µM and a TGI (HCT-15 colon) of 11.2 µM. For the same compound, the TGI (HL-60(TB) leukemia) was 0.584 µM, the TGI (HOP-18 NSCLC) was 25.3 µM and the TGI (HOP-62 NSCLC) was 12.5 µM. It also gave a TGI (HS 578T breast) of 10.8 µM, a TGI (HT29 colon) of 2.57 µM and a TGI (IGROV1 ovarian) of 29.7 µM. For the same compound, the TGI (K-562 leukemia) was > 37.4 µM, the TGI (KM12 colon) was 6.83 µM and the TGI (KM20L2 colon) was 0.515 µM. It also gave a TGI (LOX IMVI melanoma) of 11.9 µM, a TGI (LXFL 529 NSCLC) of 11.1 µM and a TGI (M14 melanoma) of 11.3 µM. It also gave a TGI (M19-MEL melanoma) of 21.7 µM, a TGI (MALME-3M melanoma) of 22.3 µM and a TGI (MCF7 breast) of 20.5 µM. For the same compound, the TGI (MDA-MB-231 breast) was 24.2 µM, the TGI (MDA-MB-435) was 0.542 µM and the TGI (MOLT-4 leukemia) was 49.8 µM. It also gave a TGI (NCI-H226 lung) of 2.53 µM, a TGI (NCI-H23 lung) of 9.39 µM and a TGI (NCI-H460 lung) of 14.8 µM. The TGI (NCI-H522 lung) was 0.603 µM, the TGI (OVCAR-3 ovarian) was 13.6 µM and the TGI (OVCAR-4 ovarian) was 26 µM. It also gave a TGI (OVCAR-8 ovarian) of 6.7 µM, a TGI (PC-3 prostate) of 12.2 µM and a TGI (RPMI-8226 leukemia) of 3.08 µM. It also gave a TGI (SF-268 CNS) of 21.8 µM, a TGI (SF-295 CNS) of 43.5 µM and a TGI (SF-539 CNS) of 0.91 µM. For the same compound, the TGI (SK-MEL-28 melanoma) was 24.1 µM, the TGI (SK-MEL-5 melanoma) was 0.819 µM and the TGI (SK-OV-3 ovarian) was 25.7 µM. It also gave a TGI (SN12C renal) of 16.6 µM, a TGI (SNB-19 CNS) of 21.4 µM and a TGI (SNB-75 CNS) of 2.4 µM. It also gave a TGI (SNB-78 CNS) of 26.5 µM, a TGI (SR leukemia) of 16.9 µM and a TGI (SW-620 colon) of 12.6 µM. The TGI (T-47D breast) was 40.6 µM, the TGI (TK-10 renal) was > 100 µM and the TGI (U251 CNS) was 3.83 µM. For the same compound, the TGI (UACC-257 melanoma) was 16.9 µM, the TGI (UACC-62 melanoma) was 21 µM and the TGI (UO-31 renal) was 17.3 µM. For the same compound, the TGI (XF 498 CNS) was 16.9 µM.

With `COc1ccc(/C=C2\CCCCC2=O)cc1` the TGI (786-0 renal) was > 100 µM, the TGI (A498 renal) was > 100 µM and the TGI (A549 NSCLC) was > 100 µM. The TGI (ACHN renal) was > 100 µM, the TGI (CAKI-1 renal) was > 100 µM and the TGI (CCRF-CEM leukemia) was > 100 µM. For the same compound, the TGI (COLO 205 colon) was > 100 µM, the TGI (DLD-1 colon) was > 100 µM and the TGI (DMS 114 small cell lung) was > 100 µM. For the same compound, the TGI (DMS 273 small cell lung) was > 100 µM, the TGI (EKVX NSCLC) was > 100 µM and the TGI (HCT-116 colon) was > 100 µM. For the same compound, the TGI (HCT-15 colon) was > 100 µM, the TGI (HL-60(TB) leukemia) was > 100 µM and the TGI (HOP-18 NSCLC) was > 100 µM. For the same compound, the TGI (HOP-62 NSCLC) was > 100 µM, the TGI (HT29 colon) was > 100 µM and the TGI (IGROV1 ovarian) was > 100 µM. For the same compound, the TGI (K-562 leukemia) was > 100 µM, the TGI (KM20L2 colon) was > 100 µM and the TGI (LOX IMVI melanoma) was > 100 µM. The TGI (LXFL 529 NSCLC) was > 100 µM, the TGI (M14 melanoma) was > 100 µM and the TGI (M19-MEL melanoma) was > 100 µM. The TGI (MOLT-4 leukemia) was > 100 µM, the TGI (NCI-H23 lung) was > 100 µM and the TGI (NCI-H460 lung) was > 100 µM. The TGI (OVCAR-3 ovarian) was > 100 µM, the TGI (OVCAR-4 ovarian) was > 100 µM and the TGI (OVCAR-8 ovarian) was > 100 µM. For the same compound, the TGI (SF-268 CNS) was > 100 µM, the TGI (SF-295 CNS) was > 100 µM and the TGI (SF-539 CNS) was > 100 µM. For the same compound, the TGI (SK-MEL-28 melanoma) was > 100 µM, the TGI (SK-MEL-5 melanoma) was > 100 µM and the TGI (SK-OV-3 ovarian) was > 100 µM. The TGI (SN12C renal) was > 100 µM, the TGI (SNB-75 CNS) was > 100 µM and the TGI (SNB-78 CNS) was > 100 µM. The TGI (SW-620 colon) was > 100 µM, the TGI (TK-10 renal) was > 100 µM and the TGI (U251 CNS) was > 100 µM. The TGI (UACC-62 melanoma) was > 100 µM, the TGI (UO-31 renal) was > 100 µM and the TGI (XF 498 CNS) was > 100 µM.
